Calls of active or inactive are those of the source. No rule for the calls is given here.
Tested on: CCRIS mutagenicity, Ames/micronucleus/aberration tests
Test: CCRIS mutagenicity studies
[1] = Test System: AMES SALMONELLA TYPHIMURIUM, Strain/Indicator: TA98, Metabolic Activation: HAMSTER, LIVER, S-9, AROCLOR 1254 (10%), Method: PREINCUBATION
[2] = Test System: AMES SALMONELLA TYPHIMURIUM, Strain/Indicator: TA98, Metabolic Activation: NONE, Method: PREINCUBATION
[3] = Test System: AMES SALMONELLA TYPHIMURIUM, Strain/Indicator: TA98, Metabolic Activation: RAT, LIVER, S-9, AROCLOR 1254 (10%), Method: PREINCUBATION
[4] = Test System: AMES SALMONELLA TYPHIMURIUM, Strain/Indicator: TA100, Metabolic Activation: HAMSTER, LIVER, S-9, AROCLOR 1254 (10%), Method: PREINCUBATION
[5] = Test System: AMES SALMONELLA TYPHIMURIUM, Strain/Indicator: TA100, Metabolic Activation: NONE, Method: PREINCUBATION
[6] = Test System: AMES SALMONELLA TYPHIMURIUM, Strain/Indicator: TA100, Metabolic Activation: RAT, LIVER, S-9, AROCLOR 1254 (10%), Method: PREINCUBATION
[7] = Test System: AMES SALMONELLA TYPHIMURIUM, Strain/Indicator: TA1535, Metabolic Activation: HAMSTER, LIVER, S-9, AROCLOR 1254 (10%), Method: PREINCUBATION
[8] = Test System: AMES SALMONELLA TYPHIMURIUM, Strain/Indicator: TA1535, Metabolic Activation: NONE, Method: PREINCUBATION
[9] = Test System: AMES SALMONELLA TYPHIMURIUM, Strain/Indicator: TA1535, Metabolic Activation: RAT, LIVER, S-9, AROCLOR 1254 (10%), Method: PREINCUBATION
[10] = Test System: AMES SALMONELLA TYPHIMURIUM, Strain/Indicator: TA1537, Metabolic Activation: NONE, Method: PREINCUBATION

Measured: mutagenic call

CCC(CO)[N+](=O)[O-] (stereo unspecified)
inactive: Test System: AMES SALMONELLA TYPHIMURIUM, Strain/Indicator: TA97, Metabolic Activation: HAMSTER, LIVER, S-9, AROCLOR 1254 (10%), Method: PREINCUBATION inactive; negative | Test System: AMES SALMONELLA TYPHIMURIUM, Strain/Indicator: TA97, Metabolic Activation: HAMSTER, LIVER, S-9, AROCLOR 1254 (30%), Method: PREINCUBATION inactive; negative | Test System: AMES SALMONELLA TYPHIMURIUM, Strain/Indicator: TA97, Metabolic Activation: NONE, Method: PREINCUBATION inactive; negative | Test System: AMES SALMONELLA TYPHIMURIUM, Strain/Indicator: TA97, Metabolic Activation: RAT, LIVER, S-9, AROCLOR 1254 (10%), Method: PREINCUBATION inactive; negative | Test System: AMES SALMONELLA TYPHIMURIUM, Strain/Indicator: TA97, Metabolic Activation: RAT, LIVER, S-9, AROCLOR 1254 (30%), Method: PREINCUBATION inactive; negative | [1] inactive; negative | Test System: AMES SALMONELLA TYPHIMURIUM, Strain/Indicator: TA98, Metabolic Activation: HAMSTER, LIVER, S-9, AROCLOR 1254 (30%), Method: PREINCUBATION inactive; negative | [2] inactive; negative | [3] inactive; negative | Test System: AMES SALMONELLA TYPHIMURIUM, Strain/Indicator: TA98, Metabolic Activation: RAT, LIVER, S-9, AROCLOR 1254 (30%), Method: PREINCUBATION inactive; negative | Test System: AMES SALMONELLA TYPHIMURIUM, Strain/Indicator: TA98, Metabolic Activation: RAT, LIVER, S-9, AROCLOR, Method: PREINCUBATION inactive; negative | [4] inactive; negative | Test System: AMES SALMONELLA TYPHIMURIUM, Strain/Indicator: TA100, Metabolic Activation: HAMSTER, LIVER, S-9, AROCLOR 1254 (30%), Method: PREINCUBATION inactive; negative | [5] inactive; negative | [6] inactive; negative | Test System: AMES SALMONELLA TYPHIMURIUM, Strain/Indicator: TA100, Metabolic Activation: RAT, LIVER, S-9, AROCLOR 1254 (30%), Method: PREINCUBATION inactive; negative | Test System: AMES SALMONELLA TYPHIMURIUM, Strain/Indicator: TA100, Metabolic Activation: RAT, LIVER, S-9, AROCLOR, Method: PREINCUBATION inactive; negative | Test System: AMES SALMONELLA TYPHIMURIUM, Strain/Indicator: TA102, Metabolic Activation: NONE, Method: PREINCUBATION inactive; negative | Test System: AMES SALMONELLA TYPHIMURIUM, Strain/Indicator: TA102, Metabolic Activation: RAT, LIVER, S-9, AROCLOR, Method: PREINCUBATION inactive; negative | [7] inactive; negative | Test System: AMES SALMONELLA TYPHIMURIUM, Strain/Indicator: TA1535, Metabolic Activation: HAMSTER, LIVER, S-9, AROCLOR 1254 (30%), Method: PREINCUBATION inactive; negative | [8] inactive; negative | [9] inactive; negative | Test System: AMES SALMONELLA TYPHIMURIUM, Strain/Indicator: TA1535, Metabolic Activation: RAT, LIVER, S-9, AROCLOR 1254 (30%), Method: PREINCUBATION inactive; negative | Test System: AMES SALMONELLA TYPHIMURIUM, Strain/Indicator: TA1537, Metabolic Activation: HAMSTER, LIVER, S-9, AROCLOR 1254 (30%), Method: PREINCUBATION inactive; negative | [10] inactive; negative | Test System: AMES SALMONELLA TYPHIMURIUM, Strain/Indicator: TA1537, Metabolic Activation: RAT, LIVER, S-9, AROCLOR 1254 (30%), Method: PREINCUBATION inactive; negative

Cc1cccc(C)c1NC(=O)CN1CCCC1=O
inactive: [2] inactive; negative | Test System: AMES SALMONELLA TYPHIMURIUM, Strain/Indicator: TA98, Metabolic Activation: RAT, LIVER, S-9, SODIUM PHENOBARBITAL AND 5,6-BENZOFLAVONE, Method: PREINCUBATION inactive; negative | [5] inactive; negative | Test System: AMES SALMONELLA TYPHIMURIUM, Strain/Indicator: TA100, Metabolic Activation: RAT, LIVER, S-9, SODIUM PHENOBARBITAL AND 5,6-BENZOFLAVONE, Method: PREINCUBATION inactive; negative | [8] inactive; negative | Test System: AMES SALMONELLA TYPHIMURIUM, Strain/Indicator: TA1535, Metabolic Activation: RAT, LIVER, S-9, SODIUM PHENOBARBITAL AND 5,6-BENZOFLAVONE, Method: PREINCUBATION inactive; negative | [10] inactive; negative | Test System: AMES SALMONELLA TYPHIMURIUM, Strain/Indicator: TA1537, Metabolic Activation: RAT, LIVER, S-9, SODIUM PHENOBARBITAL AND 5,6-BENZOFLAVONE, Method: PREINCUBATION inactive; negative | Test System: E. COLI, Strain/Indicator: WP2 UVRA, Metabolic Activation: NONE, Method: PREINCUBATION inactive; negative | Test System: E. COLI, Strain/Indicator: WP2 UVRA, Metabolic Activation: RAT, LIVER, S-9, SODIUM PHENOBARBITAL AND 5,6-BENZOFLAVONE, Method: PREINCUBATION inactive; negative

CCc1cc(Cc2cc(C)c(N)c(CC)c2)cc(C)c1N
inactive: Test System: AMES SALMONELLA TYPHIMURIUM, Strain/Indicator: TA98, Metabolic Activation: RAT, LIVER, S-9, AROCLOR 1254, Method: STANDARD PLATE inactive; negative | Test System: AMES SALMONELLA TYPHIMURIUM, Strain/Indicator: TA100, Metabolic Activation: RAT, LIVER, S-9, AROCLOR 1254, Method: STANDARD PLATE inactive; negative

O=c1[nH]c(=O)n(Cl)c(=O)n1Cl
inactive: [1] inactive; negative | [2] inactive; negative | [3] inactive; negative | [4] inactive; negative | [5] inactive; negative | [6] inactive; negative | [7] inactive; negative | [8] inactive; negative | [9] inactive; negative | Test System: AMES SALMONELLA TYPHIMURIUM, Strain/Indicator: TA1537, Metabolic Activation: HAMSTER, LIVER, S-9, AROCLOR 1254 (10%), Method: PREINCUBATION inactive; negative | [10] inactive; negative | Test System: AMES SALMONELLA TYPHIMURIUM, Strain/Indicator: TA1537, Metabolic Activation: RAT, LIVER, S-9, AROCLOR 1254 (10%), Method: PREINCUBATION inactive; negative
